Measurements taken from ChEMBL document CHEMBL5143590, “Dihydropyrimidinone imidazoles as unique structural antibacterial agents for drug-resistant gram-negative pathogens” (Eur J Med Chem, 2022).
Converted amounts (≈) assume the structure as drawn.

Tests used:
Assay type in all cases: functional
Pseudomonas aeruginosa [1] = assay: Antibacterial activity against Pseudomonas aeruginosa assessed as inhibition of bacterial growth by two fold serial dilution method
Escherichia coli [2] = assay: Antibacterial activity against Escherichia coli assessed as inhibition of bacterial growth by two fold serial dilution method
Pseudomonas aeruginosa [3] = assay: Antibacterial activity against Pseudomonas aeruginosa 27853 assessed as inhibition of bacterial growth by two fold serial dilution method
Staphylococcus aureus [4] = assay: Antibacterial activity against Staphylococcus aureus assessed as inhibition of bacterial growth by two fold serial dilution method
Staphylococcus aureus [5] = assay: Antibacterial activity against methicillin-resistant Staphylococcus aureus N315 assessed as inhibition of bacterial growth by two fold serial dilution method
Enterococcus faecalis = assay: Antibacterial activity against Enterococcus faecalis assessed as inhibition of bacterial growth by two fold serial dilution method
Escherichia coli [6] = assay: Antibacterial activity against Escherichia coli 25922 assessed as inhibition of bacterial growth by two fold serial dilution method
Acinetobacter baumannii = assay: Antibacterial activity against Acinetobacter baumannii assessed as inhibition of bacterial growth by two fold serial dilution method
Staphylococcus aureus [7] = assay: Antibacterial activity against Staphylococcus aureus 25923 assessed as inhibition of bacterial growth by two fold serial dilution method
Staphylococcus aureus [8] = assay: Antibacterial activity against Staphylococcus aureus 29213 assessed as inhibition of bacterial growth by two fold serial dilution method
Klebsiella pneumoniae = assay: Antibacterial activity against Klebsiella pneumoniae assessed as inhibition of bacterial growth by two fold serial dilution method

CCCCc1nc(Cl)c(C2NC(=O)NC(CNS(=O)(=O)c3ccc(N)cc3)=C2C(=O)OCC)[nH]1 (centres undefined)
MIC (Pseudomonas aeruginosa [1]): 256 µg/mL (≈ 501 µM)
MIC (Escherichia coli [2]): 256 µg/mL (≈ 501 µM)
MIC (Pseudomonas aeruginosa [3]): 256 µg/mL (≈ 501 µM)
MIC (Staphylococcus aureus [4]): 128 µg/mL (≈ 250 µM)
MIC (Staphylococcus aureus [5]): 256 µg/mL (≈ 501 µM)
MIC (Enterococcus faecalis): 256 µg/mL (≈ 501 µM)
MIC (Escherichia coli [6]): 256 µg/mL (≈ 501 µM)
MIC (Acinetobacter baumannii): 128 µg/mL (≈ 250 µM)
MIC (Staphylococcus aureus [7]): 256 µg/mL (≈ 501 µM)
MIC (Staphylococcus aureus [8]): 256 µg/mL (≈ 501 µM)
MIC (Klebsiella pneumoniae): 256 µg/mL (≈ 501 µM)

CCCCc1nc(Cl)c(C2NC(=O)NC(C)=C2C(=O)OCC)n1CC(=O)N1CCOCC1 (centres undefined)
MIC (Pseudomonas aeruginosa [1]): 64 µg/mL (≈ 137 µM)
MIC (Escherichia coli [2]): 128 µg/mL (≈ 274 µM)
MIC (Pseudomonas aeruginosa [3]): 256 µg/mL (≈ 547 µM)
MIC (Staphylococcus aureus [4]): 64 µg/mL (≈ 137 µM)
MIC (Staphylococcus aureus [5]): 64 µg/mL (≈ 137 µM)
MIC (Enterococcus faecalis): 128 µg/mL (≈ 274 µM)
MIC (Escherichia coli [6]): 256 µg/mL (≈ 547 µM)
MIC (Acinetobacter baumannii): 128 µg/mL (≈ 274 µM)
MIC (Staphylococcus aureus [7]): 128 µg/mL (≈ 274 µM)
MIC (Staphylococcus aureus [8]): 64 µg/mL (≈ 137 µM)
MIC (Klebsiella pneumoniae): 32 µg/mL (≈ 68.4 µM)

CCCCc1nc(Cl)c(C2NC(=O)NC(C)=C2C(=O)OCC)n1CCC (centres undefined)
MIC (Pseudomonas aeruginosa [1]): 32 µg/mL (≈ 83.6 µM)
MIC (Escherichia coli [2]): 64 µg/mL (≈ 167 µM)
MIC (Pseudomonas aeruginosa [3]): 64 µg/mL (≈ 167 µM)
MIC (Staphylococcus aureus [4]): 16 µg/mL (≈ 41.8 µM)
MIC (Staphylococcus aureus [5]): 64 µg/mL (≈ 167 µM)
MIC (Enterococcus faecalis): 32 µg/mL (≈ 83.6 µM)
MIC (Escherichia coli [6]): 32 µg/mL (≈ 83.6 µM)
MIC (Acinetobacter baumannii): 64 µg/mL (≈ 167 µM)
MIC (Staphylococcus aureus [7]): 64 µg/mL (≈ 167 µM)
MIC (Staphylococcus aureus [8]): 128 µg/mL (≈ 334 µM)
MIC (Klebsiella pneumoniae): 64 µg/mL (≈ 167 µM)

CCCCc1nc(Cl)c(C2NC(=O)NC(C)=C2C(=O)OCC)n1S(=O)(=O)c1cccc(Cl)c1 (centres undefined)
MIC (Pseudomonas aeruginosa [1]): 128 µg/mL (≈ 248 µM)
MIC (Escherichia coli [2]): 64 µg/mL (≈ 124 µM)
MIC (Pseudomonas aeruginosa [3]): 64 µg/mL (≈ 124 µM)
MIC (Staphylococcus aureus [4]): 64 µg/mL (≈ 124 µM)
MIC (Staphylococcus aureus [5]): 16 µg/mL (≈ 31 µM)
MIC (Enterococcus faecalis): 32 µg/mL (≈ 62.1 µM)
MIC (Escherichia coli [6]): 32 µg/mL (≈ 62.1 µM)
MIC (Acinetobacter baumannii): 128 µg/mL (≈ 248 µM)
MIC (Staphylococcus aureus [7]): 32 µg/mL (≈ 62.1 µM)
MIC (Staphylococcus aureus [8]): 64 µg/mL (≈ 124 µM)
MIC (Klebsiella pneumoniae): 64 µg/mL (≈ 124 µM)

CCCCc1nc(Cl)c(C2NC(=O)NC(C)=C2C(=O)OCC)n1Cc1ccc(Cl)cc1 (centres undefined)
MIC (Pseudomonas aeruginosa [1]): 128 µg/mL (≈ 275 µM)
MIC (Escherichia coli [2]): 64 µg/mL (≈ 138 µM)
MIC (Pseudomonas aeruginosa [3]): 64 µg/mL (≈ 138 µM)
MIC (Staphylococcus aureus [4]): 64 µg/mL (≈ 138 µM)
MIC (Staphylococcus aureus [5]): 64 µg/mL (≈ 138 µM)
MIC (Enterococcus faecalis): 64 µg/mL (≈ 138 µM)
MIC (Escherichia coli [6]): 64 µg/mL (≈ 138 µM)
MIC (Acinetobacter baumannii): 32 µg/mL (≈ 68.8 µM)
MIC (Staphylococcus aureus [7]): 64 µg/mL (≈ 138 µM)
MIC (Staphylococcus aureus [8]): 64 µg/mL (≈ 138 µM)
MIC (Klebsiella pneumoniae): 64 µg/mL (≈ 138 µM)

CCCCc1nc(Cl)c(C2NC(=O)NC(C)=C2C(=O)OCC)n1S(=O)(=O)c1cccc(Br)c1 (centres undefined)
MIC (Pseudomonas aeruginosa [1]): 32 µg/mL (≈ 57.2 µM)
MIC (Escherichia coli [2]): 32 µg/mL (≈ 57.2 µM)
MIC (Pseudomonas aeruginosa [3]): 16 µg/mL (≈ 28.6 µM)
MIC (Staphylococcus aureus [4]): 32 µg/mL (≈ 57.2 µM)
MIC (Staphylococcus aureus [5]): 32 µg/mL (≈ 57.2 µM)
MIC (Enterococcus faecalis): 16 µg/mL (≈ 28.6 µM)
MIC (Escherichia coli [6]): 32 µg/mL (≈ 57.2 µM)
MIC (Acinetobacter baumannii): 32 µg/mL (≈ 57.2 µM)
MIC (Staphylococcus aureus [7]): 64 µg/mL (≈ 114 µM)
MIC (Staphylococcus aureus [8]): 64 µg/mL (≈ 114 µM)
MIC (Klebsiella pneumoniae): 16 µg/mL (≈ 28.6 µM)

CCCCc1nc(Cl)c(C2NC(=O)NC(C)=C2C(=O)OCC)n1Cc1ccc(C)cc1 (centres undefined)
MIC (Pseudomonas aeruginosa [1]): 128 µg/mL (≈ 288 µM)
MIC (Escherichia coli [2]): 32 µg/mL (≈ 71.9 µM)
MIC (Pseudomonas aeruginosa [3]): 64 µg/mL (≈ 144 µM)
MIC (Staphylococcus aureus [4]): 64 µg/mL (≈ 144 µM)
MIC (Staphylococcus aureus [5]): 128 µg/mL (≈ 288 µM)
MIC (Enterococcus faecalis): 64 µg/mL (≈ 144 µM)
MIC (Escherichia coli [6]): 32 µg/mL (≈ 71.9 µM)
MIC (Acinetobacter baumannii): 64 µg/mL (≈ 144 µM)
MIC (Staphylococcus aureus [7]): 64 µg/mL (≈ 144 µM)
MIC (Staphylococcus aureus [8]): 64 µg/mL (≈ 144 µM)
MIC (Klebsiella pneumoniae): 128 µg/mL (≈ 288 µM)

CCCCc1nc(Cl)c(C2NC(=O)NC(CN(c3ccc(OC)nn3)S(=O)(=O)c3ccc(N)cc3)=C2C(=O)OCC)[nH]1 (centres undefined)
MIC (Pseudomonas aeruginosa [1]): 128 µg/mL (≈ 207 µM)
MIC (Escherichia coli [2]): 128 µg/mL (≈ 207 µM)
MIC (Pseudomonas aeruginosa [3]): 16 µg/mL (≈ 25.8 µM)
MIC (Staphylococcus aureus [4]): 32 µg/mL (≈ 51.7 µM)
MIC (Staphylococcus aureus [5]): 32 µg/mL (≈ 51.7 µM)
MIC (Enterococcus faecalis): 64 µg/mL (≈ 103 µM)
MIC (Escherichia coli [6]): 64 µg/mL (≈ 103 µM)
MIC (Acinetobacter baumannii): 64 µg/mL (≈ 103 µM)
MIC (Staphylococcus aureus [7]): 64 µg/mL (≈ 103 µM)
MIC (Staphylococcus aureus [8]): 64 µg/mL (≈ 103 µM)
MIC (Klebsiella pneumoniae): 16 µg/mL (≈ 25.8 µM)

C=CCn1c(CCCC)nc(Cl)c1C1NC(=O)NC(C)=C1C(=O)OCC (centres undefined)
MIC (Pseudomonas aeruginosa [1]): 64 µg/mL (≈ 168 µM)
MIC (Escherichia coli [2]): 64 µg/mL (≈ 168 µM)
MIC (Pseudomonas aeruginosa [3]): 128 µg/mL (≈ 336 µM)
MIC (Staphylococcus aureus [4]): 32 µg/mL (≈ 84 µM)
MIC (Staphylococcus aureus [5]): 64 µg/mL (≈ 168 µM)
MIC (Enterococcus faecalis): 64 µg/mL (≈ 168 µM)
MIC (Escherichia coli [6]): 64 µg/mL (≈ 168 µM)
MIC (Acinetobacter baumannii): 64 µg/mL (≈ 168 µM)
MIC (Staphylococcus aureus [7]): 128 µg/mL (≈ 336 µM)
MIC (Staphylococcus aureus [8]): 64 µg/mL (≈ 168 µM)
MIC (Klebsiella pneumoniae): 64 µg/mL (≈ 168 µM)

CCCCc1nc(Cl)c(C2NC(=O)NC(C)=C2C(=O)OCC)n1Cc1ccccc1Cl (centres undefined)
MIC (Pseudomonas aeruginosa [1]): 64 µg/mL (≈ 138 µM)
MIC (Escherichia coli [2]): 32 µg/mL (≈ 68.8 µM)
MIC (Pseudomonas aeruginosa [3]): 32 µg/mL (≈ 68.8 µM)
MIC (Staphylococcus aureus [4]): 32 µg/mL (≈ 68.8 µM)
MIC (Staphylococcus aureus [5]): 16 µg/mL (≈ 34.4 µM)
MIC (Enterococcus faecalis): 32 µg/mL (≈ 68.8 µM)
MIC (Escherichia coli [6]): 32 µg/mL (≈ 68.8 µM)
MIC (Acinetobacter baumannii): 32 µg/mL (≈ 68.8 µM)
MIC (Staphylococcus aureus [7]): 16 µg/mL (≈ 34.4 µM)
MIC (Staphylococcus aureus [8]): 128 µg/mL (≈ 275 µM)
MIC (Klebsiella pneumoniae): 128 µg/mL (≈ 275 µM)

CCCCc1nc(Cl)c(C2NC(=O)NC(C)=C2C(=O)OCC)n1Cc1ccc(F)cc1 (centres undefined)
MIC (Pseudomonas aeruginosa [1]): 32 µg/mL (≈ 71.3 µM)
MIC (Escherichia coli [2]): 16 µg/mL (≈ 35.6 µM)
MIC (Pseudomonas aeruginosa [3]): 32 µg/mL (≈ 71.3 µM)
MIC (Staphylococcus aureus [4]): 16 µg/mL (≈ 35.6 µM)
MIC (Staphylococcus aureus [5]): 16 µg/mL (≈ 35.6 µM)
MIC (Enterococcus faecalis): 32 µg/mL (≈ 71.3 µM)
MIC (Escherichia coli [6]): 16 µg/mL (≈ 35.6 µM)
MIC (Acinetobacter baumannii): 32 µg/mL (≈ 71.3 µM)
MIC (Staphylococcus aureus [7]): 32 µg/mL (≈ 71.3 µM)
MIC (Staphylococcus aureus [8]): 32 µg/mL (≈ 71.3 µM)
MIC (Klebsiella pneumoniae): 16 µg/mL (≈ 35.6 µM)

CCCCc1nc(Cl)c(C2NC(=O)NC(C)=C2C(=O)OCC)n1Cc1ccc(Cl)c(Cl)c1 (centres undefined)
MIC (Pseudomonas aeruginosa [1]): 128 µg/mL (≈ 256 µM)
MIC (Escherichia coli [2]): 128 µg/mL (≈ 256 µM)
MIC (Pseudomonas aeruginosa [3]): 64 µg/mL (≈ 128 µM)
MIC (Staphylococcus aureus [4]): 32 µg/mL (≈ 64 µM)
MIC (Staphylococcus aureus [5]): 32 µg/mL (≈ 64 µM)
MIC (Enterococcus faecalis): 64 µg/mL (≈ 128 µM)
MIC (Escherichia coli [6]): 64 µg/mL (≈ 128 µM)
MIC (Acinetobacter baumannii): 128 µg/mL (≈ 256 µM)
MIC (Staphylococcus aureus [7]): 32 µg/mL (≈ 64 µM)
MIC (Staphylococcus aureus [8]): 64 µg/mL (≈ 128 µM)
MIC (Klebsiella pneumoniae): 64 µg/mL (≈ 128 µM)

CCCCc1nc(Cl)c(C2NC(=O)NC(CN(c3nnc(C)s3)S(=O)(=O)c3ccc(N)cc3)=C2C(=O)OCC)[nH]1 (centres undefined)
MIC (Pseudomonas aeruginosa [1]): 64 µg/mL (≈ 105 µM)
MIC (Escherichia coli [2]): 128 µg/mL (≈ 210 µM)
MIC (Pseudomonas aeruginosa [3]): 64 µg/mL (≈ 105 µM)
MIC (Staphylococcus aureus [4]): 128 µg/mL (≈ 210 µM)
MIC (Staphylococcus aureus [5]): 64 µg/mL (≈ 105 µM)
MIC (Enterococcus faecalis): 8 µg/mL (≈ 13.1 µM)
MIC (Escherichia coli [6]): 128 µg/mL (≈ 210 µM)
MIC (Acinetobacter baumannii): 128 µg/mL (≈ 210 µM)
MIC (Staphylococcus aureus [7]): 256 µg/mL (≈ 420 µM)
MIC (Staphylococcus aureus [8]): 128 µg/mL (≈ 210 µM)
MIC (Klebsiella pneumoniae): 64 µg/mL (≈ 105 µM)

CCCCc1nc(Cl)c(C2NC(=O)NC(C)=C2C(=O)OCC)n1CC (centres undefined)
MIC (Pseudomonas aeruginosa [1]): 64 µg/mL (≈ 174 µM)
MIC (Escherichia coli [2]): 64 µg/mL (≈ 174 µM)
MIC (Pseudomonas aeruginosa [3]): 128 µg/mL (≈ 347 µM)
MIC (Staphylococcus aureus [4]): 64 µg/mL (≈ 174 µM)
MIC (Staphylococcus aureus [5]): 64 µg/mL (≈ 174 µM)
MIC (Enterococcus faecalis): 64 µg/mL (≈ 174 µM)
MIC (Escherichia coli [6]): 32 µg/mL (≈ 86.8 µM)
MIC (Acinetobacter baumannii): 128 µg/mL (≈ 347 µM)
MIC (Staphylococcus aureus [7]): 128 µg/mL (≈ 347 µM)
MIC (Staphylococcus aureus [8]): 256 µg/mL (≈ 694 µM)
MIC (Klebsiella pneumoniae): 64 µg/mL (≈ 174 µM)
